Assay results taken from patent US20210301306A1 (priority 2018, published 2021).

Test system: normally fed mice
Test: Feeding behavior in normally fed mice injected into the stomach wall with vector, then given CNO
Type: in vivo
Settings: 1 mg/kg CNO, FIGS. 9A-9E
Procedure: FIG. 3 depicts the response of normally fed […] mice injected into the stomach wall with retroAAV/rh10 expressing a DREADD (hD3q) which activates neurons in response to 1 mg/kg CNO. Animals injected with retroAAV/rh10 expressing the marker gene mCherry fed normally in response to CNO.

## C[N+]1([O-])CCN(C2=Nc3cc(Cl)ccc3Nc3ccccc32)CC1 [CNO, clozapine-N-oxide]
  long term feeding behavior: long term stability of reduced feeding behavior
